In brackets after ≈: the same amount, converted by molar mass.
Tests used:
[1] = system: Chinese Hamster Ovary (CHO) mammalian cell line; test: Cytotoxicity MTT assay on CHO cells; format: cell-based; details: for IC50: Cricetulus griseus, CHO, Chinese hamster ovarian cell line, MTT, 48 h; for SI (selectivity index): SI = IC50 (CHO)/IC50 (PfNF54)
Method: All the synthesized molecular hybrids (6–27) were evaluated for in vitro antiplasmodial activity against the drug-sensitive strain (NF54) of P. falciparum and for cytotoxicity against the Chinese Hamster Ovary (CHO) mammalian cell line using emetine as a reference drug. Aqueous solubility was determined at pH 6.5 (Table 2). Cytotoxicity assay. […] The reference standard, emetine, was prepared to 2 mg/mL in distilled water while stock solutions of test compounds were prepared to 20 mg/mL in 100% DMSO with the highest concentration of solvent to which the cells were exposed having no measurable effect on the cell viability. The initial concentration of the compounds and control was 100 μg/mL, which was serially diluted in complete medium with 10-fold dilutions to give six concentrations, the lowest being 0.001 μg/mL. Plates were incubated for 48 h with 100 μL of drug and 100 μL of cell suspension in each well and developed afterward by adding 25 μL of sterile MTT (Thermo Fisher Scientific) to each well, followed by 4 h of incubation in the dark. The plates were then centrifuged; the medium was aspirated, and 100 μL of DMSO was added to dissolve crystals before reading the absorbance at 540 nm. Data were analyzed, and the sigmoidal dose-response was derived using GraphPad Prism v 4.0 software (La Jolla). All experiments were performed for at least three independent biological repeats, each with technical triplicates.

[2] = system: P. falciparum NF54 (drug-sensitive strain); test: In vitro antiplasmodial assay (parasite lactate dehydrogenase), chloroquine-sensitive NF54 strain; format: cell-based, Plasmodium falciparum; details: Plasmodium falciparum; sensitive (NF54) strain of P. falciparum; pLDH assay, 48 h; mean of ≥2 independent experiments; read-out: PfNF54 IC50
Method: All the synthesized molecular hybrids (6–27) were evaluated for in vitro antiplasmodial activity against the drug-sensitive strain (NF54) of P. falciparum and for cytotoxicity against the Chinese Hamster Ovary (CHO) mammalian cell line using emetine as a reference drug. Aqueous solubility was determined at pH 6.5 (Table 2).
In-vitro anti-plasmodium assay. Compounds were tested using parasite lactate dehydrogenase assay as a marker for parasite survival. The respective stock solutions of CQ diphosphate and test compounds were prepared by dissolving 2 mg/mL in distilled water (for CQ) and 100% DMSO for test compounds. The solutions were then stored at −20 °C, with further dilutions prepared on the day of the experiment. The cultures were synchronized in the ring stage as described previously using 15 mL of 5% (w/v) d-sorbitol in water. Synchronous cultures of PfNF54 (CQS) in the late trophozoite stage were prepared to 2% parasitemia and 2% hematocrit. […] Following incubation, 100 μL of MalStat reagent and 15 μL of resuspended culture were combined, followed by addition of 25 μL of nitro blue tetrazolium chloride (NBT). The plates were kept in the dark for about 10 min to fully develop, and absorbance was measured at 620 nm on a microplate reader. Raw data were exported to Microsoft Excel for dose-response analysis.

[3] = system: P. falciparum K1 (multi-drug resistant strain); test: In vitro antiplasmodial activity against multi-drug resistant K1 strain; format: cell-based; details: Plasmodium falciparum; multi-drug resistant K1 strain of P. falciparum; read-out: PfK1 IC50
[4] = Aqueous solubility, miniaturized shake flask method (HPLC-DAD); format: physicochemical; details: aqueous solution, aqueous buffer, thermodynamic from solid, pH 6.5, shake flask 20 h, 25 °C
Method: All the synthesized molecular hybrids (6-27) were evaluated for in vitro antiplasmodial activity against the drug-sensitive strain (NF54) of P. falciparum and for cytotoxicity against the Chinese Hamster Ovary (CHO) mammalian cell line using emetine as a reference drug. Aqueous solubility was determined at pH 6.5 (Table 2). Aqueous solubility. Water solubility was analyzed using a miniaturized shake flask method. Ten millimolar stock solutions of each of the compounds were used to prepare calibration standards (10-220 μM) in DMSO. The same 10 mM stock solutions were accurately dispensed in duplicate into 96-well plates, and the DMSO, dried down ([…],90 min, 37 °C). Thereafter, the samples were reconstituted (200 μM) in an aqueous solution and shaken (20 h, 25 °C). The solutions were analyzed by means of HPLC-DAD (Agilent1200 Rapid Resolution HPLC with a diode array detector). Best fit calibration curves were constructed using the calibration standards, which were used to determine the aqueous samples' solubility.

Compound | IC50 [2] [nM] | IC50 [3] [nM] | melting point [°C] | solubility at 20 h [4] [µM] | IC50 [1] [nM] | SI (selectivity index) [1]
COc1ccc(/C=C/C(=O)c2ccc(S(=O)(=O)NCCCNc3ccnc4cc(Cl)ccc34)cc2)cc1 [Compound 12, (E)-N-(3-((7-chloroquinolin-4-yl)amino)propyl)-4-(3-(4-methoxyphenyl)acryloyl)benzenesulfonamide] | 110 | 590 | 221 to 223 |  | 43300 | 393.6
CC(=O)c1ccc(S(=O)(=O)NCCCNc2ccnc3cc(Cl)ccc23)cc1 [Compound 5, 4-acetyl-N-(3-((7-chloroquinolin-4-yl)amino)propyl)benzenesulfonamide] | 480 |  | 181 to 183 | < 5 | > 50000 | >104
O=C(/C=C/c1ccc(F)c(F)c1)c1ccc(S(=O)(=O)NCCCNc2ccnc3cc(Cl)ccc23)cc1 [Compound 13, (E)-N-(3-((7-chloroquinolin-4-yl)amino)propyl)-4-(3-(3,4-difluorophenyl)acryloyl)benzenesulfonamide] | 2580 |  | 212 to 214 | < 5 | > 300000 | >116

Second part, led by results:

IC50 [2] [nM] | IC50 [3] [nM] | melting point [°C] | solubility at 20 h [4] [µM] | Compound | IC50 [1] [nM] | SI (selectivity index) [1]
100 | 2970 |  |  | O=C(/C=C/c1ccccc1Br)c1ccc(S(=O)(=O)NCCCNc2ccnc3cc(Cl)ccc23)cc1 [Compound 8, (E)-4-(3-(2-bromophenyl)acryloyl)-N-(3-((7-chloroquinolin-4-yl)amino)propyl)benzenesulfonamide] | 43200 | 435
100 | 6000 |  |  | O=C(/C=C/c1ccc(Cl)cc1)c1ccc(S(=O)(=O)NCCCNc2ccnc3cc(Cl)ccc23)cc1 [Compound 11, (E)-4-(3-(4-chlorophenyl)acryloyl)-N-(3-((7-chloroquinolin-4-yl)amino)propyl)benzenesulfonamide] | 41200 | 416.2
370 |  | 209 to 211 | 19 (≈ 10 µg/mL) | O=C(/C=C/c1ccccc1Cl)c1ccc(S(=O)(=O)NCCNc2ccnc3cc(Cl)ccc23)cc1 [Compound 25, (E)-4-(3-(2-chlorophenyl)acryloyl)-N-(2-((7-chloroquinolin-4-yl)amino)ethyl)benzenesulfonamide] | 35400 | 95.7

— article PMC8272121, “Synthesis and Evaluation of Chalcone-Quinoline Based Molecular Hybrids as Potential Anti-Malarial Agents” (Molecules, 2021)
